According to the NIST ThermoML archive (doi:10.1021/je200721d):
± gives the expanded uncertainty stated by the source.

Test: xn = mol fraction of the nth substance listed
Settings: Liquid, Vibrating tube method

CCCCCCCC [octane] + CCCCCC
Settings	mass density [kg/m3]
312.91 K, 1000 kPa, x2 = 0.2199	680.43 ± 0.26
312.91 K, 2000 kPa, x2 = 0.2199	681.31 ± 0.27
312.91 K, 3000 kPa, x2 = 0.2199	682.24 ± 0.27
312.91 K, 4000 kPa, x2 = 0.2199	683.15 ± 0.28
312.91 K, 5000 kPa, x2 = 0.2199	684.07 ± 0.29
312.91 K, 6000 kPa, x2 = 0.2199	684.99 ± 0.3
312.91 K, 7000 kPa, x2 = 0.2199	685.92 ± 0.3
312.91 K, 8000 kPa, x2 = 0.2199	686.87 ± 0.31
312.91 K, 9000 kPa, x2 = 0.2199	687.8 ± 0.32
312.91 K, 10000 kPa, x2 = 0.2199	688.73 ± 0.33
312.91 K, 11000 kPa, x2 = 0.2199	689.64 ± 0.34
312.91 K, 12000 kPa, x2 = 0.2199	690.55 ± 0.34
312.91 K, 13000 kPa, x2 = 0.2199	691.47 ± 0.35
312.91 K, 14000 kPa, x2 = 0.2199	692.36 ± 0.36
312.91 K, 15000 kPa, x2 = 0.2199	693.23 ± 0.37
312.91 K, 16000 kPa, x2 = 0.2199	694.09 ± 0.38
312.91 K, 17000 kPa, x2 = 0.2199	694.93 ± 0.39
312.91 K, 18000 kPa, x2 = 0.2199	695.75 ± 0.4
312.91 K, 19000 kPa, x2 = 0.2199	696.54 ± 0.4
312.91 K, 20000 kPa, x2 = 0.2199	697.32 ± 0.41
312.91 K, 21000 kPa, x2 = 0.2199	698.1 ± 0.42
312.91 K, 22000 kPa, x2 = 0.2199	698.86 ± 0.43
312.91 K, 23000 kPa, x2 = 0.2199	699.56 ± 0.44
312.91 K, 24000 kPa, x2 = 0.2199	700.29 ± 0.45
312.91 K, 25000 kPa, x2 = 0.2199	700.96 ± 0.46
313.14 K, 1000 kPa, x2 = 0.1654	682.2 ± 0.26
313.14 K, 1000 kPa, x2 = 0.5749	666.9 ± 0.27
313.14 K, 1000 kPa, x2 = 0.7995	655.29 ± 0.27
313.14 K, 1000 kPa, x2 = 0.9308	647.6 ± 0.27
313.14 K, 2000 kPa, x2 = 0.1654	683.1 ± 0.27
313.14 K, 2000 kPa, x2 = 0.5749	667.85 ± 0.27
313.14 K, 2000 kPa, x2 = 0.7995	656.27 ± 0.28
313.14 K, 2000 kPa, x2 = 0.9308	648.65 ± 0.28
313.14 K, 3000 kPa, x2 = 0.1654	684.01 ± 0.27
313.14 K, 3000 kPa, x2 = 0.5749	668.75 ± 0.28
313.14 K, 3000 kPa, x2 = 0.7995	657.26 ± 0.29
313.14 K, 3000 kPa, x2 = 0.9308	649.73 ± 0.29
313.14 K, 4000 kPa, x2 = 0.1654	684.9 ± 0.28
313.14 K, 4000 kPa, x2 = 0.5749	669.74 ± 0.29
313.14 K, 4000 kPa, x2 = 0.7995	658.29 ± 0.29
313.14 K, 4000 kPa, x2 = 0.9308	650.78 ± 0.3
313.14 K, 5000 kPa, x2 = 0.1654	685.84 ± 0.29
313.14 K, 5000 kPa, x2 = 0.5749	670.74 ± 0.3
313.14 K, 5000 kPa, x2 = 0.7995	659.31 ± 0.3
313.14 K, 5000 kPa, x2 = 0.9308	651.85 ± 0.31
313.14 K, 6000 kPa, x2 = 0.1654	686.8 ± 0.3
313.14 K, 6000 kPa, x2 = 0.5749	671.71 ± 0.3
313.14 K, 6000 kPa, x2 = 0.7995	660.34 ± 0.31
313.14 K, 6000 kPa, x2 = 0.9308	652.92 ± 0.32
313.14 K, 7000 kPa, x2 = 0.1654	687.71 ± 0.3
313.14 K, 7000 kPa, x2 = 0.5749	672.72 ± 0.31
313.14 K, 7000 kPa, x2 = 0.7995	661.38 ± 0.32
313.14 K, 7000 kPa, x2 = 0.9308	654 ± 0.33
313.14 K, 8000 kPa, x2 = 0.1654	688.62 ± 0.31
313.14 K, 8000 kPa, x2 = 0.5749	673.69 ± 0.32
313.14 K, 8000 kPa, x2 = 0.7995	662.44 ± 0.33
313.14 K, 8000 kPa, x2 = 0.9308	655.08 ± 0.33
313.14 K, 9000 kPa, x2 = 0.1654	689.54 ± 0.32
313.14 K, 9000 kPa, x2 = 0.5749	674.66 ± 0.33
313.14 K, 9000 kPa, x2 = 0.7995	663.49 ± 0.34
313.14 K, 9000 kPa, x2 = 0.9308	656.16 ± 0.34
313.14 K, 10000 kPa, x2 = 0.1654	690.46 ± 0.33
313.14 K, 10000 kPa, x2 = 0.5749	675.65 ± 0.34
313.14 K, 10000 kPa, x2 = 0.7995	664.53 ± 0.35
313.14 K, 10000 kPa, x2 = 0.9308	657.23 ± 0.35
313.14 K, 11000 kPa, x2 = 0.1654	691.38 ± 0.33
313.14 K, 11000 kPa, x2 = 0.5749	676.63 ± 0.35
313.14 K, 11000 kPa, x2 = 0.7995	665.56 ± 0.36
313.14 K, 11000 kPa, x2 = 0.9308	658.29 ± 0.36
313.14 K, 12000 kPa, x2 = 0.1654	692.28 ± 0.34
313.14 K, 12000 kPa, x2 = 0.5749	677.6 ± 0.36
313.14 K, 12000 kPa, x2 = 0.7995	666.56 ± 0.37
313.14 K, 12000 kPa, x2 = 0.9308	659.33 ± 0.37
313.14 K, 13000 kPa, x2 = 0.1654	693.17 ± 0.35
313.14 K, 13000 kPa, x2 = 0.5749	678.56 ± 0.36
313.14 K, 13000 kPa, x2 = 0.7995	667.56 ± 0.37
313.14 K, 13000 kPa, x2 = 0.9308	660.36 ± 0.38
313.14 K, 14000 kPa, x2 = 0.1654	694.06 ± 0.36
313.14 K, 14000 kPa, x2 = 0.5749	679.5 ± 0.37
313.14 K, 14000 kPa, x2 = 0.7995	668.54 ± 0.38
313.14 K, 14000 kPa, x2 = 0.9308	661.38 ± 0.39
313.14 K, 15000 kPa, x2 = 0.1654	694.94 ± 0.37
313.14 K, 15000 kPa, x2 = 0.5749	680.41 ± 0.38
313.14 K, 15000 kPa, x2 = 0.7995	669.51 ± 0.39
313.14 K, 15000 kPa, x2 = 0.9308	662.38 ± 0.4
313.14 K, 16000 kPa, x2 = 0.1654	695.81 ± 0.38
313.14 K, 16000 kPa, x2 = 0.5749	681.32 ± 0.39
313.14 K, 16000 kPa, x2 = 0.7995	670.45 ± 0.4
313.14 K, 16000 kPa, x2 = 0.9308	663.36 ± 0.41
313.14 K, 17000 kPa, x2 = 0.1654	696.65 ± 0.38
313.14 K, 17000 kPa, x2 = 0.5749	682.2 ± 0.4
313.14 K, 17000 kPa, x2 = 0.7995	671.4 ± 0.41
313.14 K, 17000 kPa, x2 = 0.9308	664.33 ± 0.42
